Consider 15 compounds from ChEMBL document CHEMBL1130761, “Synthesis of 2,3,4a,11b-tetrahydro-oxazino[2,3-c]benzopyran-9-carbonitriles as ATP-sensitive potassium channel openers” (Bioorg Med Chem Lett, 1998).

A word on the IC50: it is the midpoint of a concentration-inhibition curve.

Holding throughout (type): functional
The species entered for experiment [1] is Rattus norvegicus. The experiment in a line: Mechanoinhibitory activity was evaluated by spontaneous contraction of rat portal vein; + indicates enhancement in spontaneous contraction was observed.
Experiment [2] is filed under the species Rattus norvegicus. The experiment in a line: Mechanoinhibitory activity in presence of Glibenclamide (1 uM) was evaluated in KCl stimulated rat detrusor strip.
The species entered for experiment [3] is Rattus norvegicus. The experiment in a line: Mechanoinhibitory activity was evaluated in KCl stimulated rat detrusor strip.
The species entered for experiment [4] is Rattus norvegicus. Description: Mechanoinhibitory activity was evaluated by spontaneous contraction of rat portal vein.
Experiment [5] can be described thus: Mechanoinhibitory activity was evaluated by the ratio of IC50(portal vein)/IC50(bladder).
The species entered for experiment [6] is Rattus norvegicus. The experiment in a line: Mechanoinhibitory activity in presence of Glibenclamide (1 uM) was evaluated by spontaneous contraction of rat portal vein.
The species named for experiment [7] is Rattus norvegicus. The experiment in a line: Mechanoinhibitory activity (bladder-selective potassium channel opening activity) was evaluated in KCl stimulated rat detrusor strip.

The structures appear in SMILES notation.

With `CC1(C)Oc2ccc(C#N)cc2[C@@H]2[C@@H]1OCCN2C=O`, the “Effect on spontaneous contraction” value in the experiment listed under Rattus norvegicus [1] was “enhancement in spontaneous contraction”. The half-inhibitory concentration (IC50) stood at 158 µM in the experiment listed under Rattus norvegicus [2] and 152 µM in the experiment filed under Rattus norvegicus [3].

`CC(C)C(=O)N1CCO[C@@H]2[C@H]1c1cc(C#N)ccc1OC2(C)C`: the IC50 in the experiment filed under Rattus norvegicus [2] came to 268 µM; in the experiment filed under Rattus norvegicus [4] it was 18.4 µM; in the experiment listed under Rattus norvegicus [3], 56.4 µM; in the experiment listed under Rattus norvegicus [6], 58.9 µM. Further, in experiment [5], the Ratio is 0.33.

For `CCC(=O)N1CCO[C@H]2[C@H]1c1cc(C#N)ccc1OC2(C)C`, the IC50 in the experiment filed under Rattus norvegicus [2] was found to be 318 µM; in the experiment listed under Rattus norvegicus [4] it was 64.9 µM; in the experiment filed under Rattus norvegicus [3] it was 47.2 µM; in the experiment filed under Rattus norvegicus [6], 92.6 µM. Also, the Ratio in experiment [5] was 1.38.

Turning to `CN1C(=O)CO[C@H]2[C@H]1c1cc(C#N)ccc1OC2(C)C`, the concentration for half-maximal inhibition (IC50) in the experiment filed under Rattus norvegicus [2] was found to be 79.5 µM; in the experiment listed under Rattus norvegicus [4] it was 50.2 µM; in the experiment filed under Rattus norvegicus [3], 43.8 µM; in the experiment filed under Rattus norvegicus [6] it was 72.8 µM. The Ratio in experiment [5] came out at 1.15.

As to `CC1(C)Oc2ccc(C#N)cc2[C@H]2NC(=O)CO[C@@H]21`, the “Effect on spontaneous contraction” value in the experiment listed under Rattus norvegicus [1] is “enhancement in spontaneous contraction”. The figures for the half-inhibitory concentration (IC50) in the experiment listed under Rattus norvegicus [2] and in the experiment filed under Rattus norvegicus [3] were 56.3 µM and 53.1 µM, respectively.

As for `CC(=O)N1CCO[C@@H]2[C@H]1c1cc(C#N)ccc1OC2(C)C`, the half-maximal inhibitory concentration (IC50) in the experiment filed under Rattus norvegicus [2] was found to be 53.2 µM; in the experiment filed under Rattus norvegicus [4], 2.7 µM; in the experiment filed under Rattus norvegicus [3], 8.8 µM; in the experiment listed under Rattus norvegicus [6] it was 60.9 µM. Also, in experiment [5], the Ratio turned out to be 0.31.

Regarding `CC1(C)Oc2ccc(C#N)cc2[C@@H]2[C@@H]1OCC(=O)N2Cc1ccccc1`, the “Effect on spontaneous contraction” value in the experiment filed under Rattus norvegicus [1] is “enhancement in spontaneous contraction”. Moreover, the IC50 is 130 µM in the experiment filed under Rattus norvegicus [2] and 68.2 µM in the experiment filed under Rattus norvegicus [3].

As to `CC1(C)Oc2ccc(C#N)cc2[C@@H](N2CCCC2=O)[C@@H]1O` [LEVCROMAKALIM], the IC50 in the experiment listed under Rattus norvegicus [2] turned out to be 8.7 µM; in the experiment listed under Rattus norvegicus [4], 0.13 µM; in the experiment filed under Rattus norvegicus [3], 0.82 µM; in the experiment filed under Rattus norvegicus [6], 4.9 µM. Further, the Ratio in experiment [5] worked out at 0.16.

`CC(=O)N1CCO[C@H]2[C@H]1c1cc(C#N)ccc1OC2(C)C`: the IC50 in the experiment listed under Rattus norvegicus [2] came to 153 µM; in the experiment filed under Rattus norvegicus [4], 5.9 µM; in the experiment filed under Rattus norvegicus [3] it was 70.1 µM; in the experiment filed under Rattus norvegicus [6], 79.3 µM. Moreover, the Ratio in experiment [5] is reported as 0.08.

With `CC(C)C(=O)N1CCO[C@H]2[C@H]1c1cc(C#N)ccc1OC2(C)C`, the IC50 amounted to 244 µM in the experiment listed under Rattus norvegicus [2], 127 µM in the experiment filed under Rattus norvegicus [4] and 104 µM in the experiment filed under Rattus norvegicus [3]. In experiment [5], the Ratio turned out to be 1.22.

Take `CN1C(=O)CO[C@H]2[C@@H]1c1cc(C#N)ccc1OC2(C)C`: the IC50 in the experiment listed under Rattus norvegicus [2] came out at 129 µM; in the experiment filed under Rattus norvegicus [4], 26.2 µM; in the experiment listed under Rattus norvegicus [3], 65.7 µM; in the experiment filed under Rattus norvegicus [6], 28.3 µM. Further, the Ratio in experiment [5] turned out to be 0.4.

Take `CCC(=O)N1CCO[C@@H]2[C@H]1c1cc(C#N)ccc1OC2(C)C`: the IC50 in the experiment filed under Rattus norvegicus [2] was found to be 141 µM; in the experiment filed under Rattus norvegicus [4] it was 20.1 µM; in the experiment filed under Rattus norvegicus [3], 51.8 µM; in the experiment listed under Rattus norvegicus [6], 52.6 µM. For the same compound, the Ratio in experiment [5] is on record as 0.39.

As for `CC1(C)Oc2ccc(C#N)cc2[C@@H]2[C@H]1OCCN2C=O`, the IC50 in the experiment filed under Rattus norvegicus [2] turned out to be 279 µM; in the experiment listed under Rattus norvegicus [4], 62.8 µM; in the experiment filed under Rattus norvegicus [3], 51.8 µM; in the experiment listed under Rattus norvegicus [6], 117 µM. Besides, in experiment [5], the Ratio stood at 1.21.

Regarding `CC1(C)Oc2ccc(C#N)cc2[C@@H]2[C@H]1OCCN2C(=O)c1ccccc1`, the IC50 in the experiment filed under Rattus norvegicus [2] was found to be 32.8 µM; in the experiment listed under Rattus norvegicus [7] it was 8.15 µM; in the experiment listed under Rattus norvegicus [4], 34.5 µM; in the experiment listed under Rattus norvegicus [6], 45.5 µM. Further, the Ratio in experiment [5] was determined as 4.23.

For `CC1(C)Oc2ccc(C#N)cc2[C@@H]2[C@@H]1OCCN2C(=O)c1ccccc1`, the “Effect on spontaneous contraction” value in the experiment listed under Rattus norvegicus [1] was “enhancement in spontaneous contraction”. Further, the half-maximal inhibitory concentration (IC50) in the experiment filed under Rattus norvegicus [2] came out at 123 µM; in the experiment filed under Rattus norvegicus [3], 66 µM.
